Data taken from US20080300138A1, “Dioxazinyl-Substituted Thienylsulphonylaminocarbonyl Compounds” (priority 2004, published 2008).

Legend:
[1] = test system: weeds; test: Post-emergence test (summary in words); format: in vivo, mono- and dicotyledonous weed plants; settings: greenhouse, result in words
Protocol: (§1) Seeds of mono- and dicotyledonous weed and crop plants are placed in sandy loam soil in wood fiber pots, covered with soil and cultivated in a greenhouse under good growth conditions. 2 to 3 weeks after sowing, the trial plants are treated at the one-leaf stage. The test compounds, formulated as wettable powders (WP), are sprayed at various dosages with a water application rate of 800 I/ha (converted) and with addition of 0.2% of welting agent onto the green parts of the plants. After the trial plants have stood in the greenhouse for about 3 weeks under optimum growth conditions, the effect of the products is scored visually in comparison to untreated controls (herbicidal effect in percent (%): 100% effect=plants have died, 0% effect=like control plants).

[2] = test system: Cyperus; test: Post-emergence test/greenhouse; format: in vivo; settings: 80 g of ai/ha, WP sprayed at one-leaf stage, scored visually after about 3 weeks, 100% = plants have died, 0% = like control plants
Protocol: as §1

[3] = test system: Echinochloa; test: Post-emergence test/greenhouse; format: in vivo; settings: 80 g of ai/ha, WP sprayed at one-leaf stage, scored visually after about 3 weeks, 100% = plants have died, 0% = like control plants
Protocol: as §1

[4] = test system: Amaranthus; test: Post-emergence test/greenhouse; format: in vivo; settings: 80 g of ai/ha, WP sprayed at one-leaf stage, scored visually after about 3 weeks, 100% = plants have died, 0% = like control plants
Protocol: as §1

[5] = test system: Setaria; test: Post-emergence test/greenhouse; format: in vivo; settings: 80 g of ai/ha, WP sprayed at one-leaf stage, scored visually after about 3 weeks, 100% = plants have died, 0% = like control plants
Protocol: as §1

[6] = test system: Stellaria; test: Post-emergence test/greenhouse; format: in vivo; settings: 80 g of ai/ha, WP sprayed at one-leaf stage, scored visually after about 3 weeks, 100% = plants have died, 0% = like control plants
Protocol: as §1

[7] = test system: Lolium; test: Post-emergence test/greenhouse; format: in vivo; settings: 80 g of ai/ha, WP sprayed at one-leaf stage, scored visually after about 3 weeks, 100% = plants have died, 0% = like control plants
Protocol: as §1

[8] = test system: Sinapis; test: Post-emergence test/greenhouse; format: in vivo; settings: 80 g of ai/ha, WP sprayed at one-leaf stage, scored visually after about 3 weeks, 100% = plants have died, 0% = like control plants
Protocol: as §1

SMILES: COc1nc(C)nc(NC(=O)NS(=O)(=O)c2c(C3=NOCCO3)csc2C)n1 [Example 1, N-(4-methoxy-6-methyl-1,3,5-triazin-2-yl)-N′-(4-(5,6-dihydro-[1,4,2]-dioxazin-3-yl)-2-methylthien-3-ylsulfonyl)urea]
- effectiveness against weeds [1]: highly effective
- herbicidal effect in percent, Cyperus [2]: 100%
- herbicidal effect in percent, Echinochloa [3]: 90%
- herbicidal effect in percent, Amaranthus [4]: 90%
- herbicidal effect in percent, Setaria [5]: 90%
- herbicidal effect in percent, Stellaria [6]: 90%
- herbicidal effect in percent, Lolium [7]: 90%
- herbicidal effect in percent, Sinapis [8]: 90%

SMILES: COc1nn(C)c(=O)n1C [Example 6]
- effectiveness against weeds [1]: highly effective
- herbicidal effect in percent, Cyperus [2]: 80%
- herbicidal effect in percent, Echinochloa [3]: 80%
- herbicidal effect in percent, Amaranthus [4]: 90%
- herbicidal effect in percent, Setaria [5]: 80%
- herbicidal effect in percent, Stellaria [6]: 90%
- herbicidal effect in percent, Lolium [7]: 90%
- herbicidal effect in percent, Sinapis [8]: 80%

SMILES: CCOc1nn(C)c(=O)n1C [Example 7]
- effectiveness against weeds [1]: highly effective
- herbicidal effect in percent, Cyperus [2]: 90%
- herbicidal effect in percent, Echinochloa [3]: 90%
- herbicidal effect in percent, Amaranthus [4]: 90%
- herbicidal effect in percent, Setaria [5]: 90%
- herbicidal effect in percent, Stellaria [6]: 90%
- herbicidal effect in percent, Lolium [7]: 90%
- herbicidal effect in percent, Sinapis [8]: 80%
